Assay results published in US20220306626A1, “CRYSTALLINE FORM OF A DIHYDROCHLORIDE SALT OF A JAK INHIBITOR COMPOUND” (Theravance Biopharma R&D IP, LLC, priority 2021, published 2022).
Read-outs that look alike come from different tables or passages of the source. Blank lines part the entries; values can stand above or below the molecule they belong to.

Tests used:
[1] = in vivo; cited from earlier work
JAK1 = JAK1 (Homo sapiens, UniProt P23458); details: cited from earlier work
JAK3 = biological target: T1, JAK3 (Homo sapiens, UniProt P52333); details: cited from earlier work
T1 sequence (P52333 1-1124): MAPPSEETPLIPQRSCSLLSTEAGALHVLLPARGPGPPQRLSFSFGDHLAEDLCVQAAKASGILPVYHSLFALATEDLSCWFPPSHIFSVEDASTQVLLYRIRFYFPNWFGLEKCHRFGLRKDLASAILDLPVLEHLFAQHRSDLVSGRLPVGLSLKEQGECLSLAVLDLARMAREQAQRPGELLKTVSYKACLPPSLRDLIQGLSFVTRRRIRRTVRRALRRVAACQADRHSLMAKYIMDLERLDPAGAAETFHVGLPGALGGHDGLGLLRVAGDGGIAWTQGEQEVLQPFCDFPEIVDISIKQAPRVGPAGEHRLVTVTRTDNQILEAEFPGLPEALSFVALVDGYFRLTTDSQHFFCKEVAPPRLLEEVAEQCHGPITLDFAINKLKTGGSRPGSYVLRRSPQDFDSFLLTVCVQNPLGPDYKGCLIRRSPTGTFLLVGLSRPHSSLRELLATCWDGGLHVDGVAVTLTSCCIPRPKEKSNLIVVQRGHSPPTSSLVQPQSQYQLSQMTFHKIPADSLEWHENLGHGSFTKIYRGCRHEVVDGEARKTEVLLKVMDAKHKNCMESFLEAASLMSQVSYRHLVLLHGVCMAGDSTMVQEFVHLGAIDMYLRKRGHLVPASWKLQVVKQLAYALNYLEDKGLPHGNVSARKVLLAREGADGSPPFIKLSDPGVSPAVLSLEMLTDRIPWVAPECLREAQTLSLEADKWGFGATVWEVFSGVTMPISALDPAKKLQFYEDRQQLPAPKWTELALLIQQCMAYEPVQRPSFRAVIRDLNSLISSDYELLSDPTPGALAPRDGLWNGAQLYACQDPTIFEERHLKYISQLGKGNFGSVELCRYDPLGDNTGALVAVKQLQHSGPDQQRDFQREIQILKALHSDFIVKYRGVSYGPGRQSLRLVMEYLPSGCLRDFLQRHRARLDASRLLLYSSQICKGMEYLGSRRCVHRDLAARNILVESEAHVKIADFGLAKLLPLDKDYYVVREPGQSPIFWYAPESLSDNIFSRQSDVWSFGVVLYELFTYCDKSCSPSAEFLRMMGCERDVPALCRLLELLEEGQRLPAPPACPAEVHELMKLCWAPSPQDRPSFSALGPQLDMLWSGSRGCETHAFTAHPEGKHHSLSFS

[2] = system: pro-inflammatory and pro-fibrotic cytokines; details: cited from earlier work
JAK2 = JAK2 (Homo sapiens, UniProt O60674); details: cited from earlier work
TYK2 = TYK2 (Homo sapiens, UniProt P29597); details: cited from earlier work
[3] = Thermogravimetric analysis (TGA); assay type: physicochemical; details: heating rate of 10° C., ambient to 360° C., nitrogen
Experimental: Thermogravimetric analysis (TGA) measurements were performed using a TA Instruments Model Q-50 module equipped with high resolution capability. Data were collected using TA Instruments Thermal Analyst controller and analyzed using TA Instruments Universal Analysis software. A weighed sample was placed onto a platinum pan and scanned with a heating rate of 10° C. from ambient temperature to 360° C. The balance and furnace chambers were purged with nitrogen flow during use. The crystalline form decomposes at an onset temperature of about 285° C.

[4] = Solubility of the crystalline form in water and Simulated Lung Fluid; assay type: physicochemical
Experimental: The solubility of the crystalline form was assessed in water and Simulated Lung Fluid (SLF). The crystalline form was dispersed in liquid media in multiple vials to form slurries, with each vial containing about 7.5 mg of the crystalline form and 0.5 mL of the liquid media. The slurries were agitated in a thermo-shaker at 25° C. and samples were collected from different vials at approximately 5, 15, 30, 60 minutes, and 24 hours. At each of the timepoints, the slurries were centrifuged for 10 minutes. The supernatant was collected and centrifuged for another 10 minutes. Solubility at each timepoint is determined by analyzing the compound concentration in the supernatant using HPLC. SLF composition: 0.4% NaCl, 0.02% DPPC in 50 mM phosphate buffer pH 6.9

[5] = Stability study, storage at 40° C. and 75% relative humidity, analysed by HPLC; assay type: physicochemical
Experimental: Samples of the crystalline form were stored in glass vials with screw caps at 40° C. and 75% relative humidity (RH). At specific intervals, the contents of a representative sample were removed and analyzed by HPLC for assay and chemical purity as shown in Table 3.

[6] = Dynamic moisture sorption (DMS) assessment; assay type: physicochemical
Experimental: Dynamic moisture sorption (DMS) measurement was performed using a VTI atmospheric microbalance, SGA-100 system (VTI Corp., Hialeah, Fla. 33016). A weighed sample was used and the humidity was at the lowest possible value (close to 0% RH) at the start of the analysis. The DMS analysis consisted of an initial drying step (˜0% RH) for 16 hours, followed by two cycles of sorption and desorption with a scan rate of 5% RH/step over the humidity range of 5% RH to 90% RH. The DMS run was performed isothermally at 25° C.

[7] = T = 3 Months, 40° C. and 75% RH
[8] = T = 6 Months, 40° C. and 75% RH

JAK1, sequence (P23458 whole entry): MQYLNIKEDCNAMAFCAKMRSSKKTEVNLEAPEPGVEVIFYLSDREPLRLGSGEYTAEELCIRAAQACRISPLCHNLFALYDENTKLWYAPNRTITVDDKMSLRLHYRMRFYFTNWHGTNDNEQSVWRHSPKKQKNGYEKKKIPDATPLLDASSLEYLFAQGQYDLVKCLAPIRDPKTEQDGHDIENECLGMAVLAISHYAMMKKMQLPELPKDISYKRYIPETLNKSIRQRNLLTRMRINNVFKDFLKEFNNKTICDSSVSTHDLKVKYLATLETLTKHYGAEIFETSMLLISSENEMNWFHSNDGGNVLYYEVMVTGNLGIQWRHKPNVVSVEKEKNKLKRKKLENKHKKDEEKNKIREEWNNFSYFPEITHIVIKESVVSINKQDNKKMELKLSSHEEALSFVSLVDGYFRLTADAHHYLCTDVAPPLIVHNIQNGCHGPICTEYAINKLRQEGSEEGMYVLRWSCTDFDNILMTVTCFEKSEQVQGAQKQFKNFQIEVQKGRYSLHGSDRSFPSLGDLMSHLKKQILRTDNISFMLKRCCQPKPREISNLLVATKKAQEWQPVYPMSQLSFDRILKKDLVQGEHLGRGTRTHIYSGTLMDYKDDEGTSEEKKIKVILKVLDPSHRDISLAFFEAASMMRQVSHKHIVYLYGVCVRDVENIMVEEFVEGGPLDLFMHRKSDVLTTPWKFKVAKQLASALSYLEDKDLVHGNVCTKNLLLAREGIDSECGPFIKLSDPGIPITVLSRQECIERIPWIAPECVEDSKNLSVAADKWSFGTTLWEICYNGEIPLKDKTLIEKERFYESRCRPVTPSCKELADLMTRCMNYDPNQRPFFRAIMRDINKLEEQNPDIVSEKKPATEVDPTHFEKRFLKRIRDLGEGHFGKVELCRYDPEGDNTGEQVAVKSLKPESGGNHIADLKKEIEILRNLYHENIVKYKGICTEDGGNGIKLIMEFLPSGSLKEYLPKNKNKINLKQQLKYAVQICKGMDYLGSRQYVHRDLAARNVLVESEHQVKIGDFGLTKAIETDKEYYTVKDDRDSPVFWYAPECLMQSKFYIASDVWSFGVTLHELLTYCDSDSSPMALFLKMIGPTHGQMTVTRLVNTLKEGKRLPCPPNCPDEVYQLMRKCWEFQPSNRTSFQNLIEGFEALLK
TYK2, sequence (P29597 whole entry): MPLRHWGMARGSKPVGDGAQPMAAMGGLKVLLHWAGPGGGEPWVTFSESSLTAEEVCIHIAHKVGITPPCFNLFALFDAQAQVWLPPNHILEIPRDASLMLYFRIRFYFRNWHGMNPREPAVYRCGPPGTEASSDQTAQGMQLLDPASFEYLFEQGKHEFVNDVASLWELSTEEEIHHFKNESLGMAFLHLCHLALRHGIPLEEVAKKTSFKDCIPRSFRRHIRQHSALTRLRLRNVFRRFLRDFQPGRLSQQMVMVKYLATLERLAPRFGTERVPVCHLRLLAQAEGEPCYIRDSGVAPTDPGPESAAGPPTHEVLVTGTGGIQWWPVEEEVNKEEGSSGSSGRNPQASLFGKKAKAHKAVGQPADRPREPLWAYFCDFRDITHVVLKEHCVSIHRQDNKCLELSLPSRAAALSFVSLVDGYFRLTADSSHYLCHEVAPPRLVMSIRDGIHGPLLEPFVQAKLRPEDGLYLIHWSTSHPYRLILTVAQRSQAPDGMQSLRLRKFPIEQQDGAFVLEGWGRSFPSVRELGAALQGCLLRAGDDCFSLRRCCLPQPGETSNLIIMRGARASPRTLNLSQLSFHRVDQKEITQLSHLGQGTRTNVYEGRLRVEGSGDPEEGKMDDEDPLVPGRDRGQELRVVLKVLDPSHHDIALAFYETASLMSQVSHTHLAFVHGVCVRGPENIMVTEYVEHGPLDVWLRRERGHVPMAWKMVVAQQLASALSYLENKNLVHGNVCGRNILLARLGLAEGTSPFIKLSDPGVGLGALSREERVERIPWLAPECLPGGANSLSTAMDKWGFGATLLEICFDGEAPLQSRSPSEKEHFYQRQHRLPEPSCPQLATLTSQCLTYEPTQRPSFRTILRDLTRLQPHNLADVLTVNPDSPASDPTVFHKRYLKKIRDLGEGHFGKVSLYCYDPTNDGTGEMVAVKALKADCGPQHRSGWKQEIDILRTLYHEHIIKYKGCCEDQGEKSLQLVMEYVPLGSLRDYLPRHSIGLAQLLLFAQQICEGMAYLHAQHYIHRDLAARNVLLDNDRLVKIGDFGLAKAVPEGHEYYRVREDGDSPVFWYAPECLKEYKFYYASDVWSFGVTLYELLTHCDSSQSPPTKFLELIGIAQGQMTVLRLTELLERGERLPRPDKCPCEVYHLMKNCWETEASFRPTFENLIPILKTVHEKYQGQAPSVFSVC
JAK2, sequence (O60674 whole entry): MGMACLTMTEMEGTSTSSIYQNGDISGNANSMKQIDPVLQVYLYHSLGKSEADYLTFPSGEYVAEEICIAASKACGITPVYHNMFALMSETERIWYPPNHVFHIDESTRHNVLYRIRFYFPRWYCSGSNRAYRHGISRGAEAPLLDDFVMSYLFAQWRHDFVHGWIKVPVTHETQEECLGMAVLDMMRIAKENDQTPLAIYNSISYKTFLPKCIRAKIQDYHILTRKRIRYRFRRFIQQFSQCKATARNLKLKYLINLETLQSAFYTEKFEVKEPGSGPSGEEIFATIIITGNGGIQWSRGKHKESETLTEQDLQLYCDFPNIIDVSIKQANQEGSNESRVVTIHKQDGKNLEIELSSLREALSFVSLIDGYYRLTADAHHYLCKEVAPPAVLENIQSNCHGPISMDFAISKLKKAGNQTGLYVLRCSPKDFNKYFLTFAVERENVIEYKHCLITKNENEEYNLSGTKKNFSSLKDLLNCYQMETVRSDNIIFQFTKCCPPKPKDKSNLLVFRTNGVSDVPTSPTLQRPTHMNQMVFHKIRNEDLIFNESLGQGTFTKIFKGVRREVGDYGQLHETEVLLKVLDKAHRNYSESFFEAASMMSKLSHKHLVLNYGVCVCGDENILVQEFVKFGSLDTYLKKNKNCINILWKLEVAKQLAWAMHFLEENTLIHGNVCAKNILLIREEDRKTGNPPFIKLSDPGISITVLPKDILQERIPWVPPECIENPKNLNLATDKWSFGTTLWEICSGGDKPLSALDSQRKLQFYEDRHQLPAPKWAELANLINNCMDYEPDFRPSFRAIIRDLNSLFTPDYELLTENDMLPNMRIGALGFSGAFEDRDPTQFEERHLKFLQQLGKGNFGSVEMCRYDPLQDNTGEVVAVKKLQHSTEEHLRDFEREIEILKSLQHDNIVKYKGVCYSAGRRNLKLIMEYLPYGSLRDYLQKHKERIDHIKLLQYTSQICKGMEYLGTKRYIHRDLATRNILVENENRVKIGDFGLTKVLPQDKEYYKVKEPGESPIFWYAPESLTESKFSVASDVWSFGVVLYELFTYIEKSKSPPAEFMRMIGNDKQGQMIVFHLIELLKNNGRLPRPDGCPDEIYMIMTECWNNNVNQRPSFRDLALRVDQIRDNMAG

Structure (SMILES): CCc1cc(O)c(F)cc1-c1ccc2c(-c3nc4c([nH]3)CCN(C3CCN(C)CC3)C4)n[nH]c2c1 [compound 1, 5-ethyl-2-fluoro-4-(3-(5-(1-methylpiperidin-4-yl)-4,5,6,7-tetrahydro-1H-imidazo[4,5-c]pyridin-2-yl)-1H-indazol-6-yl)phenol]
lung retention (in words) [1]: significant lung retention
inhibition of JAK1 (in words) (JAK1): potent inhibitor
inhibition of JAK3 (in words) (JAK3): potent inhibitor
inhibition of pro-inflammatory and pro-fibrotic cytokines (in words) [2]: potent inhibition
inhibition of JAK2 (in words) (JAK2): potent inhibitor
inhibition of TYK2 (in words) (TYK2): potent inhibitor

decomposition onset temperature (TGA) [3]: about 285 °C
solubility at 30 min ([4]; Simulated Lung Fluid (SLF), fassgf or other biorelevant, thermodynamic from solid, Simulated Lung Fluid pH 6.9, 25° C., 30 minutes): 210 µg/mL
solubility at 24 h ([4]; Simulated Lung Fluid (SLF), pH 6.9, fassgf or other biorelevant, thermodynamic from solid, Simulated Lung Fluid, 25° C., read-out: solubility in SLF): 70 µg/mL
solubility in simulated lung fluid (in words) ([4]; simulated lung fluid): good solubility
solubility at 60 min ([4]; thermodynamic from solid, water, 25° C., 60 minutes): 8900 µg/mL
solubility at 24 h ([4]; thermodynamic from solid, water, 25° C., read-out: solubility in water): 3200 µg/mL
solubility in water (in words) ([4]; water): good solubility
Assay % w/w ([5]; T = 0): 85.0 % w/w
HPLC purity % a/a ([5]; T = 0): 98.7 % a/a
Assay % w/w ([5]; T = 1 Week, 40° C. and 75% RH): 86.8 % w/w
HPLC purity % a/a ([5]; T = 1 Week, 40° C. and 75% RH): 98.7 % a/a
Assay % w/w ([5]; T = 2 Weeks, 40° C. and 75% RH): 85.1 % w/w
HPLC purity % a/a ([5]; T = 2 Weeks, 40° C. and 75% RH): 98.7 % a/a
Assay % w/w [5, 7]: 84.5 % w/w
HPLC purity % a/a [5, 7]: 98.7 % a/a
Assay % w/w ([5]; T = 4 Weeks, 40° C. and 75% RH): 86.9 % w/w
HPLC purity % a/a ([5]; T = 4 Weeks, 40° C. and 75% RH): 98.7 % a/a
Assay % w/w [5, 8]: 85.1 % w/w
HPLC purity % a/a [5, 8]: 98.5 % a/a
change in purity or assay ([5]; after 6 months at 40° C. and 75% RH): no significant change
change in form after two cycles of moisture sorption and desorption ([6]; 5% RH to 90% RH, 25° C.): no change in form
total moisture uptake ([6]; relative humidity between about 5% and about 90%, room temperature (25° C.)): about 0.8%
Structure (SMILES): CCc1cc(O)c(F)cc1-c1ccc2c(-c3nc4c([nH]3)CCN(C3CCN(C)CC3)C4)n[nH]c2c1 [crystalline form, 5-ethyl-2-fluoro-4-(3-(5-(1-methylpiperidin-4-yl)-4,5,6,7-tetrahydro-1H-imidazo[4,5-c]pyridin-2-yl)-1H-indazol-6-yl)phenol, 2HCl Crystalline Form]
